Measured values: patent publication US20260092054A1, “FUSED RING COMPOUND AND PHARMACEUTICAL CONTAINING SAME” (KAKEN PHARMACEUTICAL CO., LTD., priority 2022, published 2026)

Experiments:
human STAT6/pIL-4Rα = molecular target: T1, human STAT6/pIL-4Rα (Homo sapiens, UniProt P42226); test: Binding inhibitory activity between human STAT6/pIL-4Rα by fluorescence polarization method; conditions: rhSTAT6 (123-658) / FAM-pIL-4Rα peptide
T1 construct: histidine tag
T1 sequence (P42226 123-658): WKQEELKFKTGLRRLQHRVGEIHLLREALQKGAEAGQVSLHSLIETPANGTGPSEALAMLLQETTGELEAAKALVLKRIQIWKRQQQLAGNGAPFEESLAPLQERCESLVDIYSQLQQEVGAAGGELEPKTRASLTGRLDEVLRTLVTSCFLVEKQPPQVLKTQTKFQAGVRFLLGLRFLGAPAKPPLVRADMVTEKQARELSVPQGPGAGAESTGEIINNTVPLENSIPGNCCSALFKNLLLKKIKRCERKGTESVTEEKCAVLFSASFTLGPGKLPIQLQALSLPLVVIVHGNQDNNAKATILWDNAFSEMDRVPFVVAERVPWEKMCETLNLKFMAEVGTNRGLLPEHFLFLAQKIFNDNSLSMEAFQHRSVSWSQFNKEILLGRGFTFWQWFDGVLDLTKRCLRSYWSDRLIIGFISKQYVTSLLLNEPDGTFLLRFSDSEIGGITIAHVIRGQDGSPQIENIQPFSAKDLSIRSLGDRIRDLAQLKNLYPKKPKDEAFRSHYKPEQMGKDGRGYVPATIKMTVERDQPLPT
Experimental: Test Example 1: Measurement of Binding Inhibitory Activity Between Human STAT6/pIL-p 4Rα by Fluorescence Polarization Method
1) Construction of Histidine Tag-Fused Recombinant Human STAT6 (123 to 658 Region)
A histidine tag-fused recombinant human STAT6 (hereinafter referred to as rhSTAT6) expression vector [plasmid DNA in which a nucleic acid sequence containing human STAT6 (123-658 region) was inserted into a pET28a(+) vector (Novagen)] was inserted into E. coli, and the cells were cultured overnight under culturing conditions at 17° C. with IPTG treatment. After disrupting E. coli with a high-pressure homogenizer (EmulsiFlex-C3, manufactured by AVESTIN, Inc.), affinity purification using Ni-NTA agarose (manufactured by Qiagen), cation exchange chromatography using HiTrap® CM-FF (manufactured by GE healthcare), and gel filtration chromatography using Superdex® 200 10/300GL (manufactured by GE healthcare) were performed to obtain rhSTAT6.
2) Measurement of Binding Inhibitory Activity Between Human STAT6/pIL-4Rα by Fluorescence Polarization Method
A DMSO solution of the example compound was diluted with an assay buffer [for example, a buffer containing 50 mmol/L NaCl, 10 mmol/L HEPES (pH 7.0), 1 mmol/L DTT, 1 mmol/L EDTA, and 0.01 vol % NP-40, and the like] to prepare a compound-added solution. The DMSO concentration in the compound addition solution was adjusted to 1 or 2 vol %. 10 μL of the compound addition solution and an assay buffer containing 1 or 2 vol % DMSO were added to each well of a 384-well plate. 5 μL of an assay buffer solution containing rhSTAT6 (rhSTAT6 concentration: for example, 1 μmol/L) or an assay buffer was added to each well of a 384-well plate. After leaving the plate at room temperature for 30 minutes in the dark, 5 μL of an assay buffer solution (FAM-pIL-4Rp concentration: for example, 80 nmol/L) containing FAM-labeled phosphorylated IL-4Rα peptide (sequence: FAM-Ala-pTyr-Lys-Pro-Phe-Gln-Asp-Leu-IIe-NH2) (hereinafter, FAM-pIL-4Rp) or an assay buffer containing 2 vol % DMSO was added to each well of the 384-well plate. The mixture was left to stand at room temperature for 30 minutes in the dark, and then centrifuged (200 g, 1 minute, room temperature). Fluorescence polarization values were measured using Infinite (registered trademark) F500 (manufactured by Tecan Japan Co., Ltd.) (Excitation: 485 nm, Emission: 535 nm). The inhibition rate of each Example compound was calculated according to the following formula using the fluorescence polarization value (A) when rhSTAT6 and FAM-pIL-4Rp were added without adding the Example compound, the fluorescence polarization value (B) when FAM-pIL-4Rp was added without adding the Example compound and rhSTAT6, and the fluorescence polarization value (C) when each Example compound, rhSTAT6, and FAM-pIL-4Rp were added.
In the evaluation of each example compound, the 50% inhibitory concentration (IC50) of each example compound was calculated from a linear function equation of a straight line connecting two points sandwiching 50%.

human STAT6 = test: Human STAT6 dependent reporter activity (IL-4 stimulated STAT6 reporter assay using STAT6-HEK293 cells); type: cell-based; conditions: Homo sapiens, IL-4 stimulation, luciferase activity, read-out: Inhibition rate (%); for inhibition at 0.1 µM: compound 0.1 μmol/L; for inhibition at 1 µM: compound 1 μmol/L
Experimental: Test Example 2: Measurement of Human STAT6 Dependent Reporter Activity
1) Construction of Human STAT6-HEK293 Cells
HEK 293 cells maintenance cultured by [Penicillin-Streptomycin (Thermo Fisher Scientific) and FBS, 1 vol % and 10 vol % respectively added to DMEM high glucose (Thermo Fisher Scientific)](manufactured by ATCC) were collected, and suspended in 10 mL of 0.5% BSA/PBS. 1×10^6 cells were collected, the supernatant was removed by centrifuging, and the cells were suspended in 100 μL of Nucleofector solution V (manufactured by Lonza K.K.). 2 μg of STAT6 vector [plasmid DNAs incorporating human STAT6 sequences in pcDNA3.1 (Invitrogen)] was added, and the STAT6 vector was introduced into the HEK293 cells using the program Q-001 initially registered in the Nucleofector®2b. A cell line (STAT6-HEK293 cells) consistently expressing STAT6 was acquired by selecting resistant cells in a medium containing Geneticin® (manufactured by Thermo Fisher Scientific). 2) STAT6 reporter assay using STAT6-HEK293 cells 3×10^6 STAT6-HEK293 cells maintained in assay medium [culture medium supplemented with 1 vol % Geneticin®] were harvested and seeded in a 10 cm dish. 3 μg of a STAT6 reporter vector [plasmid in which a sequence containing a STAT6 binding sequence and a C/EBP binding sequence in tandem was incorporated into pGL4.27 (manufactured by Promega Corporation)] and 9 μL of FuGENE® HD transfection reagent (manufactured by Promega Corporation) were added to 500 μL of Opti-MEM® (manufactured by Thermo Fisher Scientific) to prepare transfection solutions. The transfection solution was vortexed and left to stand for about 5 minutes, then added dropwise to the STAT6-HEK293 cells, which were then cultured overnight in a C02 incubator to produce STAT6 reporter cells.
The prepared STAT6 reporter cells were seeded on B&W isoplate-96 TC (PerkinElmer Japan Co., Ltd.) (3×10^4 cells/50 μL/well) and cultured overnight in a C02 incubator (37° C., 5% C02). 50 μL of assay medium was added to each well instead of the STAT6 reporter cells. The compound addition solution was prepared by diluting the DMSO solution of the example compound 250-fold using the assay medium. 20 μL of compound addition solution or 0.4 vol % DMSO-containing assay medium was added to the plate, and the plate was then cultured in a CO2 incubator for 1 hour. 10 μL of 80 ng/mL human IL-4 solution (Peprotech) or assay medium was added to each well, and the cells were cultured in a CO2 incubator for 6 hours.
STAT6 reporter activity was measured using the Bright-Glo® Luciferase Assay System (Promega). 100 μL of Bright-Glo® reagent was added to each well, and luciferase activity was measured using Infinite® F500. The inhibition rate of each Example compound was calculated by the following formula using the luciferase activity value (G) when no Example compound was added and stimulation with IL-4 was performed, the luciferase activity value (H) when no Example compound was added and stimulation with IL-4 was not performed, and the luciferase activity value (I) when each Example compound was treated and stimulation with IL-4 was performed.
Note that the viable cell rate under each condition was 70% or more, and it was determined that the luciferase activity inhibitory activity of each example compound was appropriately evaluated.

| Compound | IC50 (human STAT6/pIL-4Rα) [nM] | inhibition at 0.1 µM (human STAT6) [%] | inhibition at 1 µM (human STAT6) [%] |
| --- | --- | --- | --- |
| CCn1c(-c2ccc(-n3c(C)nn(C)c3=O)cc2)cc2c(F)ccc(C(=O)Nc3ccc(F)c(C(N)=O)c3)c21 [Ex. 76] | 360 | 31 | 94 |
| COCCn1c(-c2ccc(-n3c(C)nn(C)c3=O)cc2)cc2cc(C(F)(F)F)cc(C(=O)Nc3cccc(N)n3)c21 [Ex. 95] | 280 | 74 | – |
| CNC(=O)c1cccc(NC(=O)c2cc(C(F)(F)F)cc3cc(-c4ccc(-n5c(C)nn(C)c5=O)cc4)n(CCOC)c23)n1 [Ex. 172] | 380 | 17 | 83 |
| COCCn1c(-c2ccc(-n3cnn(C)c3=O)cc2)cc2cc(C(F)(F)F)cc(C(=O)Nc3ccc(F)c(C(N)=O)c3)c21 [Ex. 41] | 280 | 92 | 100 |
| COCCn1c(-c2ccc(-n3c(C)nn(C)c3=O)cc2)cc2cc(C(F)(F)F)cc(C(=O)Nc3cccc(C(=O)Nc4ccn(C5CC5)n4)c3)c21 [Ex. 178] | 280 | 100 | – |
| CCn1c(-c2ccc(-n3c(C)nn(C)c3=O)cc2)cc2c(C(F)(F)F)ccc(C(=O)Nc3ccc(F)c(C(N)=O)c3)c21 [Ex. 30] | 270 | 76 | 100 |
| COCCn1c(-c2ccc(N3C(=O)C(C)CC3C)cc2)cc2ccnc(C(=O)Nc3cccc(C(N)=O)c3)c21 (centres unmarked) [Ex. 136] | 480 | 61 | – |
| CCn1c(-c2ccc(-n3c(C)nn(C)c3=O)cc2)cc2cc(C(F)(F)F)cc(C(=O)Nc3cccc(C(=O)NCC(=O)N(C)C)c3)c21 [Ex. 170] | 400 | 49 | 99 |
| CCn1c(-c2ccc(N3C(=O)C(C)CC3C)cc2)cc2cc(C(F)(F)F)cc(C(=O)Nc3cccc(C(N)=O)c3F)c21 (centres unmarked) [Ex. 161] | 870 | 86 | 99 |
| COCCn1c(-c2ccc(-n3c(C)nn(C)c3=O)cc2)cc2cc(C(F)(F)F)cc(C(=O)Nc3ccnnc3)c21 [Ex. 88] | 420 | 9 | 76 |
| CNC(=O)c1cccc(NC(=O)c2cc(C(F)(F)F)cc3cc(-c4ccc(-n5c(C)nn(C)c5=O)cc4)n(CCOC)c23)c1 [Ex. 44] | 170 | 93 | 100 |
| CCn1c(-c2ccc(-n3c(C)nn(C)c3=O)cc2)cc2c(Cl)ccc(C(=O)Nc3ccc(F)c(C(N)=O)c3)c21 [Ex. 68] | 350 | 59 | 100 |
| COCCn1c(-c2ccc(-n3c(C)nn(C)c3=O)cc2)cc2cc(C(F)(F)F)cc(C(=O)Nc3cccc(C(=O)Nc4ccn(CC(=O)OC)n4)c3)c21 [Ex. 181] | 310 | 94 | – |
| CCn1c(-c2ccc(-n3c(C)nn(C)c3=O)cc2)cc2cc(C(F)(F)F)cc(C(=O)Nc3cccc(C(N)=O)c3F)c21 [Ex. 15] | 250 | 97 | 100 |
| CCn1c(-c2ccc(-n3ncn(C)c3=O)cc2)cc2cc(C(F)(F)F)cc(C(=O)Nc3cccc(C(N)=O)c3F)c21 [Ex. 47] | 1000 | 43 | 95 |
| CCn1c(-c2ccc(-n3c(C)nn(C)c3=O)cc2)cc2cc(F)cc(C(=O)Nc3ccc(F)c(C(N)=O)c3)c21 [Ex. 18] | 350 | 80 | 99 |
| Cc1nn(C)c(=O)n1-c1ccc(-c2cc3ccnc(C(=O)Nc4ccc(F)c(C(N)=O)c4)c3n2CC2CCC2)cc1 [Ex. 121] | 420 | 40 | 97 |
| CCn1c(-c2ccc(-n3c(C)nn(C)c3=O)cc2)cc2c(F)ccc(C(=O)Nc3cccc(C(N)=O)c3F)c21 [Ex. 77] | 590 | 73 | 99 |
| COCCn1c(-c2ccc(-n3cnn(C)c3=O)cc2)cc2cc(C(F)(F)F)cc(C(=O)Nc3cccc(C(N)=O)c3F)c21 [Ex. 42] | 260 | 90 | 100 |
